Experiments:
[1] = biological target: BCL-XL (Homo sapiens (Human), UniProt Q07817); test: Protein-protein interaction assay BCL-XL/Bad BH3 peptide (BCL-XL assay, TR-FRET); assay type: binding; settings: His-BCL-XL / Bad BH3 peptide, median
How it was run: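 His-tagged human BCL-XL (aa 1-212, 1 nM final) was preincubated 10 min at 22 °C with compound (11 concentrations, 0.1 nM–20 μM), then biotinylated Bad BH3 peptide (1 nM) and TR-FRET reagents were added. Incubation: 1 h at 22 °C, then overnight at 4 °C, pH 7 Tris buffer. IC50 from 4-parameter fit of 665/620 ratio.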

[2] = system: SUDHL5; test: Induction of caspase-3/7 activity (Assay 4), SUDHL5; assay type: cell-based; settings: caspase-3/7 induction, 3 hours, median
How it was run: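 Caspase-3/7 activity measured by Caspase-Glo 3/7 luminescence in DLBCL cells after 3 h compound treatment at 37 °C. Medium-only background subtracted. EC50 fitted with C0 fixed at 1 and top set to the reference compound's plateau/max induction.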

[3] = system: MV-4-11; test: Antiproliferation assay (Assay 7), MV-4-11; assay type: cell-based; settings: CellTiter-Glo, 72 hours, several values per example, listed as 08, read-out: Antiproli MV-4-11 [M] IC50
How it was run: (§1)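 Luminescent ATP-based viability (CellTiter-Glo) measured after 72 hours of compound treatment at 37° C, alongside a time-zero plate read on the day of plating.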

[4] = system: AMO-1; test: Antiproliferation assay (Assay 7), AMO-1; assay type: cell-based; settings: CellTiter-Glo, 72 hours, several values per example, listed as 08, read-out: Antiproli AMO-1 [M] IC50
How it was run: as §1

[5] = system: HMC-1-8; test: Antiproliferation assay (Assay 7), HMC-1-8; assay type: cell-based; settings: 72 h, CellTiter-Glo, several values per example, read-out: Antiproli HMC-1-8 [M] IC50
How it was run: as §1

Chain of BCL-XL (Q07817 other isoform, or with tags, fused parts or gaps): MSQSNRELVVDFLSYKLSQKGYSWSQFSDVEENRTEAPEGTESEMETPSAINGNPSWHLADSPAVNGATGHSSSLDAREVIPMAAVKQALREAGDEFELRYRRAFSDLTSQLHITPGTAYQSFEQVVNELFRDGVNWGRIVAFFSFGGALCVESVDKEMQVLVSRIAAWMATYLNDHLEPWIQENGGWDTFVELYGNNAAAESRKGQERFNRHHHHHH

- IC50 [1]: > 20000 nM
- EC50 [2]: 580 nM
- IC50 [3]: 1.18e-06 M
Compound: CCc1c2c(nn1C)CN(C)S(=O)(=O)CCCn1c(C(=O)O)c(CCCOc3cccc4cc(F)ccc34)c3ccc(F)c-2c31 (single isomer, unassigned; enantiomer 1) [Example 8, (+)-3-Ethyl-4-fluoro-7-{3-[(6-fluoronaphthalen-1-yl)oxy]propyl}-2,14-dimethyl-13,13-dioxo-10,11,12,13,14,15-hexahydro-2H-13λ^6-pyrazolo[3′,4′:4,5][1,2,8]thiadiazacycloundecino-[6,7,8-hi]indole-8-carboxylic acid (Enantiomer 1)]
- IC50 [4]: 1.5e-06 M
- IC50 [5]: 2.2e-06 M

Source: patent publication US11401278B2, “Macrocyclic indole derivatives” (The Broad Institute, Inc., priority 2017, dated 2022)
